In PubChem BioAssay (NCI):
≈ marks a conversion by molar mass, not a printed value.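 Each compound was tested at five concentrations against cells in 96-well plates for 48 hours. Abbreviation: GI50, concentration required for 50% inhibition of growth. Definition used: TGI = concentration required for complete inhibition of growth.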

Experiments:
Assay in all cases: growth of human tumour cells (NCI), 48 h; in the data active = GI50 below about 0.43 µM; inactive = the rest
[1] = tested on: SNB-19 CNS
[2] = tested on: HOP-62 NSCLC
[3] = tested on: HL-60(TB) leukemia
[4] = tested on: HCT-15 colon
[5] = tested on: SNB-75 CNS
[6] = tested on: K-562 leukemia
[7] = tested on: RXF 393 renal
[8] = tested on: PC-3 prostate
[9] = tested on: A549 NSCLC
[10] = tested on: MDA-N

Clc1ccccc1/C=C/c1cscn1
> 100 µM: TGI [1] | TGI [2] | TGI [3] | TGI [4] | TGI [5] | TGI [6] | TGI [7]

O=S1(=O)N(CCNc2nccc(-c3c(-c4cccc(O)c4)nc4sccn34)n2)CCN1Cc1ccccc1
inactive: GI50 [8] 5.66 µM | GI50 [1] 36.4 µM | GI50 [2] 24.6 µM | GI50 [3] 8.4 µM | GI50 [9] 12.5 µM | GI50 [4] 6.05 µM | GI50 [5] 9.38 µM | GI50 [6] 3.44 µM | GI50 [7] 0.982 µM
> 50 µM: TGI [8] | TGI [1] | TGI [2] | TGI [9] | TGI [5] | TGI [6]
9.37 µM: TGI [7]
20.1 µM: TGI [3]
20.9 µM: TGI [4]

CCOC(=O)CN=C1NNS(=O)(=O)c2ccccc21
> 100 µM: TGI [8] | TGI [1] | TGI [2] | TGI [3] | TGI [9] | TGI [4] | TGI [5] | TGI [10] | TGI [6] | TGI [7]

O=C1NN(C2=NNC3(C(=O)N2)c2ccccc2-c2ccccc23)C(c2ccccc2)=N/C1=C/c1ccc(O)cc1
inactive: GI50 [8] 56.3 µg/mL | GI50 [1] 94.9 µg/mL | GI50 [2] 39.9 µg/mL | GI50 [3] 51.7 µg/mL | GI50 [9] 74.7 µg/mL | GI50 [4] 49.6 µg/mL | GI50 [5] 57.4 µg/mL | GI50 [10] 56.8 µg/mL (≈ 108 µM) | GI50 [6] 35.8 µg/mL | GI50 [7] 97 µg/mL
> 150 µg/mL: TGI [8] | TGI [1] | TGI [3] | TGI [9] | TGI [4] | TGI [5] | TGI [10] | TGI [6] | TGI [7]
138 µg/mL: TGI [2]

COc1cc(/C=C2\CCCC3=C2NC(C)=NC3c2cc(OC)c(OC)c(OC)c2)cc(OC)c1OC (stereo not drawn)
> 100 µM: TGI [8] | TGI [4] | TGI [5] | TGI [6]
inactive: GI50 [8] 2.05 µM | GI50 [4] 1.03 µM | GI50 [5] > 100 µM | GI50 [6] 0.917 µM

NCCCCC(N)C(=O)NCCNc1ccc(NCCNC(=O)C(N)CCCCN)c2c1C(=O)c1ccccc1C2=O (stereo not drawn)
21.6 µM: TGI [7]
> 100 µM: TGI [8] | TGI [1] | TGI [2] | TGI [3] | TGI [9] | TGI [4] | TGI [5] | TGI [10] | TGI [6]

C=CC1(C)CCC2=C(CCC3C(C)(C(=O)OC)CCCC23C)C1=O (stereo not drawn)
42.7 µM: TGI [4]
55.2 µM: TGI [3]
31.3 µM: TGI [2]
> 100 µM: TGI [1] | TGI [6]

O=C(N/N=C\c1cccc(O)c1)c1ccncc1
> 100 µM: TGI [8] | TGI [1] | TGI [2] | TGI [9] | TGI [4] | TGI [5] | TGI [10] | TGI [6] | TGI [7]

Cn1c(=O)c2[nH]c(CCCCC(=O)O)nc2n(C)c1=O
> 100 µM: TGI [8] | TGI [1] | TGI [2] | TGI [9] | TGI [4] | TGI [5] | TGI [10] | TGI [7]

Cc1cc(O)c(C(C)(C)C)cc1Sc1cc(C(C)(C)C)c(O)cc1C
4.74 µM: TGI [2]
13 µM: TGI [1]
6.35 µM: TGI [3]
11.8 µM: TGI [4]
10.6 µM: TGI [8]
inactive: GI50 [8] 2.77 µM | GI50 [1] 3.72 µM | GI50 [2] 2.11 µM | GI50 [3] 2.6 µM | GI50 [9] 3.1 µM | GI50 [4] 2.96 µM | GI50 [5] 2.99 µM | GI50 [6] 1.95 µM | GI50 [7] 1.82 µM
3.39 µM: TGI [7]
5.4 µM: TGI [6]
14.5 µM: TGI [5]
10.3 µM: TGI [9]

CCOC(=O)C(O)(NC(=O)c1ccc(F)cc1)C(F)(F)F (stereo not drawn)
> 100 µM: TGI [8] | TGI [1] | TGI [2] | TGI [3] | TGI [9] | TGI [4] | TGI [5] | TGI [10] | TGI [6] | TGI [7]
